Test results taken from patent US4411925A, “Branched amides of L-aspartyl-d-amino acid dipeptides” (Pfizer Inc., priority 1980, dated 1983).
Square brackets hold non-standard residues; d marks the D form. Peptide text beside a SMILES is read from it. * marks the point of attachment. NHiPr = CC(C)N*; OiPr = CC(C)O*

Tests used:
[1] = Sweetness potency: gustatory sweetness compared with sucrose standard by expert taste panel; type: in vivo; conditions: aqueous solutions compared with 7-9% sucrose
Protocol: The sweetness potency of the instant compounds was determined by comparison of their gustatory sweetnesses with sucrose. Aqueous solutions of the compound of formula (I) diluted to a suitable range of concentrations were compared with a sucrose standard by an expert taste panel. Comparisons were generally made with aqueous sucrose solutions of 7-9%, i.e., 7-9 g. per 100 ml. Higher sucrose concentrations have a distinctive mouthfeel which may influence results and lower sucrose concentration are not indicative of normal use situations. […] All of the sweetness potency values stated herein for the compounds of the invention were determined by this method.

[2] = prior art values (U.S. 3,492,131; Mazur et al.; Sukehiro et al.); cited from earlier work
[3] = factor used to calculate the theoretical sweetness of the blends; cited from earlier work

Compound	Sweetness potency [1]	further results
C[C@@H](NC(=O)[C@@H](N)CC(=O)O)C(=O)NC(C1CC1)C(C)(C)C (mixture of isomers) [Example 6, L-Aspartyl-D-alanine N-(dl-t-butylcyclopropylcarbinyl)amide]	1200 x sucrose	
C[C@@H](NC(=O)[C@@H](N)CC(=O)O)C(=O)NC1C(=O)OCC1(C)C (mixture of isomers) [Example 27, L-Aspartyl-D-alanine N-(DL-2-amino-3,3-dimethyl-4-hydroxybutanoic acid lactone)amide]	100 x sucrose	
C[C@@H](NC(=O)[C@@H](N)CC(=O)O)C(=O)NC1C(C)(C)CSC1(C)C (mixture of isomers) [L-Aspartyl-D-alanine N-(2,2,4,4-tetramethyltetrahydrothiophene-3-yl)amide]	800 x sucrose	
CC1CCCC(C)C1NC(=O)[C@@H](C)NC(=O)[C@@H](N)CC(=O)O (relative stereo) [Example 3]	600 x sucrose	
CC1CCCCC1NC(=O)[C@@H](C)NC(=O)[C@@H](N)CC(=O)O (stereo partly drawn) [Example 4, L-Aspartyl-D-alanine N-(2-methycyclohexyl)amide]	250 x sucrose	
C[C@@H](NC(=O)[C@@H](N)CC(=O)O)C(=O)NC1C(C)(C)CCC1(C)C [Example 7, L-Aspartyl-D-alanine N-(2,2,5,5-tetramethylcyclopent-l-yl)amide]	800 x sucrose	
CC1CSCC(C)C1NC(=O)[C@@H](C)NC(=O)[C@@H](N)CC(=O)O (stereo partly drawn) [Example 12, L-Aspartyl-D-alanine-N-(3,5-dimethyltetrahydrothiopyran-4-yl)amide]	200 x sucrose	
C[C@@H](NC(=O)[C@@H](N)CC(=O)O)C(=O)NC1C(C)(C)SC1(C)C [Example 16, L-Aspartyl-D-alanine N-(2,2,4,4-tetramethylthietan-3-yl)amide]	2000 x sucrose	
C[C@@H](NC(=O)[C@@H](N)CC(=O)O)C(=O)NC1C(C)(C)S(=O)(=O)C1(C)C [Example 17, L-Aspartyl-D-alanine N-(2,2,4,4-tetramethyl-1,1-dioxothietan-3-yl)amide]	1000 x sucrose	
CSC(C)(C)C(NC(=O)[C@@H](C)NC(=O)[C@@H](N)CC(=O)O)C(C)C (stereo partly drawn) [Example 18, L-Aspartyl-D-alanine N-(2-methylthio-2,4-dimethylpentan-3-yl)amide]	150 x sucrose	
CC[C@@H](NC(=O)[C@@H](N)CC(=O)O)C(=O)NC(C1CC1)C1CC1 [Example 20, L-Aspartyl-D-2-aminobutyric acid N-(dicyclopropylcarbinyl)amide]	500 x sucrose	
CC[C@@H](NC(=O)[C@@H](N)CC(=O)O)C(=O)NC1C(C)(C)S(=O)(=O)C1(C)C [Example 21, L-Aspartyl-D-2-aminobutyric acid N-(2,2,4,4-tetramethyl-1,1-dioxothietan-3-yl)amide]	200 x sucrose	
CC[C@@H](NC(=O)[C@@H](N)CC(=O)O)C(=O)NC(C(C)C)C(C)C [Example 22, L-Aspartyl-D-2-aminobutyric acid N-(2,4-dimethyl-3-pentyl)amide]	100 x sucrose	
CC(C)[C@@H](NC(=O)[C@@H](N)CC(=O)O)C(=O)NC(C1CC1)C1CC1 [Example 23, L-Aspartyl-D-valine N-(dicyclopropylcarbinyl)amide]	110 x sucrose	
CC(C)NC(=O)[C@H](NC(=O)[C@@H](N)CC(=O)O)C(C)C [Example 24, L-Aspartyl-D-valine N-isopropylamide] (H-Asp-[dV]-NHiPr)	1-2 x sucrose	
C[C@@H](NC(=O)[C@@H](N)CC(=O)O)C(=O)NC(C(C)(C)C)C(C)(C)C [Example 25, L-Aspartyl-D-alanine N-(2,2,4,4-tetramethyl-3-pentyl)amide]	450 x sucrose	
CC(C)C(NC(=O)[C@@H](C)NC(=O)[C@@H](N)CC(=O)O)C(C)(C)O (stereo partly drawn) [Example 26, L-Aspartyl-D-alanine N-(2-hydroxy-2,4-dimethyl-3-pentyl)amide]	125 x sucrose	
CC(C)OC(=O)[C@@H](C)NC(=O)[C@@H](N)CC(=O)O [L-aspartyl-D-alanine isopropyl ester] (H-Asp-[dA]-OiPr)		sweetness relative to sucrose [2]: up to 125 times sucrose
C[C@@H](NC(=O)[C@@H](N)CC(=O)O)C(=O)NC(C1CC1)C1CC1 [[I, R^a =CH3, R=CH(Δ)2], L-Aspartyl-D-alanine N-(dicyclopropylcarbinyl)amide]	1200 x sucrose	
O=C1NS(=O)(=O)c2ccccc21.[Na] [sodium saccharin]		Sweetness potency factor [3]: 300 x sucrose
L-Aspartyl-D-alanine N-(2,2,4,4-tetramethyltetrahydrothiophene-3-yl)amide [Example 14]	500 x sucrose	
